The experiment deals with human SCTR (Homo sapiens, UniProt P47872). In words: β-arr2-GFP translocation assay run in antagonist mode. Further: peptide 5 min at 37 °C. Type of experiment: cell-based. The arrangement: expressed in transfected cells; host or cells: U2OS (human osteosarcoma), stably co-transfected with β-arrestin2-GFP. As to conditions: read-out: IC50, inhibition of β-arr2-GFP translocation (Table 3). From the text:
U2OS-SCTR/β-arr2-GFP: human osteosarcoma cell line U2OS (purchased from ATCC/LGC Standards, Wesel, Germany) were stably transfected with plasmids encoding SCTR (Homo sapiens) and the fusion protein β-arrestin2-green fluorescent protein (GFP) (Rattus norvegicus-Aequorea victoria) (β-arr2-GFP).
For analysis of antagonistic effects on SCTR, a slightly modified protocol of the β-arr2-GFP translocation was used. […] For analysis, cells were terminally fixed and permeabilized as previously described. The additional monitoring of IDCC fluorescence in the near-infrared channel (667 nm) provided another measure for receptor binding and activation.

Each structure is given as a SMILES string. Where a SMILES comes first, the peptide text is derived from it. [ ]: non-standard residue; d: D form.

The IC50 is the point on the concentration scale where inhibition reaches its midpoint.

Chain of human SCTR (P47872 23-440): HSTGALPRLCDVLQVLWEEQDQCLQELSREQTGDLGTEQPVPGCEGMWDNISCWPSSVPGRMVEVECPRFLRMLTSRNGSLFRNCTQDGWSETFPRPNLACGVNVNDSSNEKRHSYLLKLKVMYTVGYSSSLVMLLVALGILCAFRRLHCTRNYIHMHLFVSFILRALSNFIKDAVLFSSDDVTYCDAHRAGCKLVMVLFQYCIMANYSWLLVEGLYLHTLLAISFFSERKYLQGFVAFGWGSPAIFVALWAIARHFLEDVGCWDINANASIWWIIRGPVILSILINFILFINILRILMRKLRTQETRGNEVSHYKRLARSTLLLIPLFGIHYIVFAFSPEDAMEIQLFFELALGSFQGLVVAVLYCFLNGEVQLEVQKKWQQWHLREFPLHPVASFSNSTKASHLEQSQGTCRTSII

`CC(C)C[C@H](NC(=O)CNC(=O)[C@H](CCC(N)=O)NC(=O)[C@H](CC(C)C)NC(=O)[C@H](CC(C)C)NC(=O)[C@H](CCCNC(=N)N)NC(=O)[C@H](CCC(N)=O)NC(=O)[C@H](CC(C)C)NC(=O)[C@H](CCCNC(=N)N)NC(=O)[C@H](C)NC(=O)CNC(=O)[C@H](CCC(=O)O)NC(=O)[C@H](CCCNC(=N)N)NC(=O)[C@H](CC(C)C)NC(=O)[C@H](CCCNC(=N)N)NC(=O)[C@H](CO)NC(=O)[C@H](CC(C)C)NC(=O)[C@H](CCC(=O)O)NC(=O)[C@H](CO)NC(=O)[C@@H](NC(=O)[C@H](C)NC(=O)[C@H](N)CCCNC(=N)N)[C@@H](C)O)C(=O)N[C@H](C(=O)O)C(C)C` [Peptide 126]: the IC50 was 1.76 ± 0.322 µM.
Turning to `CC(C)C[C@H](NC(=O)CNC(=O)[C@H](CCC(N)=O)NC(=O)[C@H](CC(C)C)NC(=O)[C@H](CC(C)C)NC(=O)[C@H](CCCNC(=N)N)NC(=O)[C@H](CCC(N)=O)NC(=O)[C@H](CC(C)C)NC(=O)[C@H](CCCNC(=N)N)NC(=O)[C@H](C)NC(=O)CNC(=O)[C@H](CCC(=O)O)NC(=O)[C@H](CCCNC(=N)N)NC(=O)[C@H](CC(C)C)NC(=O)[C@H](CCCNC(=N)N)NC(=O)[C@H](CO)NC(=O)[C@H](CC(C)C)NC(=O)[C@H](CCC(=O)O)NC(=O)[C@H](CO)NC(=O)[C@H](C)NC(=O)[C@H](Cc1ccccc1)NC(=O)[C@H](N)CCCNC(=N)N)C(=O)N[C@H](C(=O)O)C(C)C` [Peptide 127], the IC50 came to 1.61 ± 0.185 µM.
In the case of `CC(C)C[C@H](NC(=O)CNC(=O)[C@H](CCC(N)=O)NC(=O)[C@H](CC(C)C)NC(=O)[C@H](CC(C)C)NC(=O)[C@H](CCCNC(=N)N)NC(=O)[C@H](CCC(N)=O)NC(=O)[C@H](CC(C)C)NC(=O)[C@H](CCCNC(=N)N)NC(=O)[C@H](C)NC(=O)CNC(=O)[C@H](CCC(=O)O)NC(=O)[C@H](CCCNC(=N)N)NC(=O)[C@H](CC(C)C)NC(=O)[C@H](CCCNC(=N)N)NC(=O)[C@H](CO)NC(=O)[C@H](CC(C)C)NC(=O)[C@H](CCC(=O)O)NC(=O)[C@H](C)NC(=O)[C@@H](NC(=O)[C@H](Cc1ccccc1)NC(=O)[C@H](N)CCCNC(=N)N)[C@@H](C)O)C(=O)N[C@H](C(=O)O)C(C)C` [Peptide 128] (H-[dR]FTAELSRLREGARLQRLLQGLV-OH) it was 0.897 ± 0.108 µM.
Then `CC(C)C[C@H](NC(=O)CNC(=O)[C@H](CCC(N)=O)NC(=O)[C@H](CC(C)C)NC(=O)[C@H](CC(C)C)NC(=O)[C@H](CCCNC(=N)N)NC(=O)[C@H](CCC(N)=O)NC(=O)[C@H](CC(C)C)NC(=O)[C@H](CCCNC(=N)N)NC(=O)[C@H](C)NC(=O)CNC(=O)[C@H](CCC(=O)O)NC(=O)[C@H](CCCNC(=N)N)NC(=O)[C@H](CC(C)C)NC(=O)[C@H](CCCNC(=N)N)NC(=O)[C@H](CO)NC(=O)[C@H](CC(C)C)NC(=O)[C@H](C)NC(=O)[C@H](CO)NC(=O)[C@@H](NC(=O)[C@H](Cc1ccccc1)NC(=O)[C@H](N)CCCNC(=N)N)[C@@H](C)O)C(=O)N[C@H](C(=O)O)C(C)C` [Peptide 129] (H-[dR]FTSALSRLREGARLQRLLQGLV-OH), with 1.14 ± 0.281 µM; and `CC(C)C[C@H](NC(=O)CNC(=O)[C@H](CCC(N)=O)NC(=O)[C@H](CC(C)C)NC(=O)[C@H](CC(C)C)NC(=O)[C@H](CCCNC(=N)N)NC(=O)[C@H](CCC(N)=O)NC(=O)[C@H](CC(C)C)NC(=O)[C@H](CCCNC(=N)N)NC(=O)[C@H](C)NC(=O)CNC(=O)[C@H](CCC(=O)O)NC(=O)[C@H](CCCNC(=N)N)NC(=O)[C@H](CC(C)C)NC(=O)[C@H](CCCNC(=N)N)NC(=O)[C@H](C)NC(=O)[C@H](CC(C)C)NC(=O)[C@H](CCC(=O)O)NC(=O)[C@H](CO)NC(=O)[C@@H](NC(=O)[C@H](Cc1ccccc1)NC(=O)[C@H](N)CCCNC(=N)N)[C@@H](C)O)C(=O)N[C@H](C(=O)O)C(C)C` [Peptide 131] (H-[dR]FTSELARLREGARLQRLLQGLV-OH), with 0.998 ± 0.142 µM; and `CC(C)C[C@H](NC(=O)CNC(=O)[C@H](CCC(N)=O)NC(=O)[C@H](CC(C)C)NC(=O)[C@H](CC(C)C)NC(=O)[C@H](CCCNC(=N)N)NC(=O)[C@H](CCC(N)=O)NC(=O)[C@H](CC(C)C)NC(=O)[C@H](CCCNC(=N)N)NC(=O)[C@H](C)NC(=O)CNC(=O)[C@H](CCC(=O)O)NC(=O)[C@H](CCCNC(=N)N)NC(=O)[C@H](CC(C)C)NC(=O)[C@H](C)NC(=O)[C@H](CO)NC(=O)[C@H](CC(C)C)NC(=O)[C@H](CCC(=O)O)NC(=O)[C@H](CO)NC(=O)[C@@H](NC(=O)[C@H](Cc1ccccc1)NC(=O)[C@H](N)CCCNC(=N)N)[C@@H](C)O)C(=O)N[C@H](C(=O)O)C(C)C` [Peptide 132] (H-[dR]FTSELSALREGARLQRLLQGLV-OH), with 2.48 ± 0.579 µM.
In the case of `CC(C)C[C@H](NC(=O)CNC(=O)[C@H](CCC(N)=O)NC(=O)[C@H](CC(C)C)NC(=O)[C@H](CC(C)C)NC(=O)[C@H](CCCNC(=N)N)NC(=O)[C@H](CCC(N)=O)NC(=O)[C@H](CC(C)C)NC(=O)[C@H](CCCNC(=N)N)NC(=O)[C@H](C)NC(=O)CNC(=O)[C@H](CCC(=O)O)NC(=O)[C@H](CCCNC(=N)N)NC(=O)[C@H](C)NC(=O)[C@H](CCCNC(=N)N)NC(=O)[C@H](CO)NC(=O)[C@H](CC(C)C)NC(=O)[C@H](CCC(=O)O)NC(=O)[C@H](CO)NC(=O)[C@@H](NC(=O)[C@H](Cc1ccccc1)NC(=O)[C@H](N)CCCNC(=N)N)[C@@H](C)O)C(=O)N[C@H](C(=O)O)C(C)C` [Peptide 133] (H-[dR]FTSELSRAREGARLQRLLQGLV-OH) it was 0.884 ± 0.169 µM.
As for `CC(C)C[C@H](NC(=O)CNC(=O)[C@H](CCC(N)=O)NC(=O)[C@H](CC(C)C)NC(=O)[C@H](CC(C)C)NC(=O)[C@H](CCCNC(=N)N)NC(=O)[C@H](CCC(N)=O)NC(=O)[C@H](CC(C)C)NC(=O)[C@H](CCCNC(=N)N)NC(=O)[C@H](C)NC(=O)CNC(=O)[C@H](CCC(=O)O)NC(=O)[C@H](C)NC(=O)[C@H](CC(C)C)NC(=O)[C@H](CCCNC(=N)N)NC(=O)[C@H](CO)NC(=O)[C@H](CC(C)C)NC(=O)[C@H](CCC(=O)O)NC(=O)[C@H](CO)NC(=O)[C@@H](NC(=O)[C@H](Cc1ccccc1)NC(=O)[C@H](N)CCCNC(=N)N)[C@@H](C)O)C(=O)N[C@H](C(=O)O)C(C)C` [Peptide 134] (H-[dR]FTSELSRLAEGARLQRLLQGLV-OH), the IC50 was found to be 1.58 ± 0.077 µM.
Then `CC(C)C[C@H](NC(=O)CNC(=O)[C@H](CCC(N)=O)NC(=O)[C@H](CC(C)C)NC(=O)[C@H](CC(C)C)NC(=O)[C@H](CCCNC(=N)N)NC(=O)[C@H](CCC(N)=O)NC(=O)[C@H](CC(C)C)NC(=O)[C@H](C)NC(=O)[C@H](C)NC(=O)CNC(=O)[C@H](CCC(=O)O)NC(=O)[C@H](CCCNC(=N)N)NC(=O)[C@H](CC(C)C)NC(=O)[C@H](CCCNC(=N)N)NC(=O)[C@H](CO)NC(=O)[C@H](CC(C)C)NC(=O)[C@H](CCC(=O)O)NC(=O)[C@H](CO)NC(=O)[C@@H](NC(=O)[C@H](Cc1ccccc1)NC(=O)[C@H](N)CCCNC(=N)N)[C@@H](C)O)C(=O)N[C@H](C(=O)O)C(C)C` [Peptide 137] (H-[dR]FTSELSRLREGAALQRLLQGLV-OH), with 1.86 ± 0.159 µM; and `CC(C)C[C@H](NC(=O)CNC(=O)[C@H](CCC(N)=O)NC(=O)[C@H](CC(C)C)NC(=O)[C@H](CC(C)C)NC(=O)[C@H](CCCNC(=N)N)NC(=O)[C@H](C)NC(=O)[C@H](CC(C)C)NC(=O)[C@H](CCCNC(=N)N)NC(=O)[C@H](C)NC(=O)CNC(=O)[C@H](CCC(=O)O)NC(=O)[C@H](CCCNC(=N)N)NC(=O)[C@H](CC(C)C)NC(=O)[C@H](CCCNC(=N)N)NC(=O)[C@H](CO)NC(=O)[C@H](CC(C)C)NC(=O)[C@H](CCC(=O)O)NC(=O)[C@H](CO)NC(=O)[C@@H](NC(=O)[C@H](Cc1ccccc1)NC(=O)[C@H](N)CCCNC(=N)N)[C@@H](C)O)C(=O)N[C@H](C(=O)O)C(C)C` [Peptide 139] (H-[dR]FTSELSRLREGARLARLLQGLV-OH), with 1.02 ± 0.107 µM; and `CC(C)C[C@H](NC(=O)CNC(=O)[C@H](CCC(N)=O)NC(=O)[C@H](CC(C)C)NC(=O)[C@H](CC(C)C)NC(=O)[C@H](C)NC(=O)[C@H](CCC(N)=O)NC(=O)[C@H](CC(C)C)NC(=O)[C@H](CCCNC(=N)N)NC(=O)[C@H](C)NC(=O)CNC(=O)[C@H](CCC(=O)O)NC(=O)[C@H](CCCNC(=N)N)NC(=O)[C@H](CC(C)C)NC(=O)[C@H](CCCNC(=N)N)NC(=O)[C@H](CO)NC(=O)[C@H](CC(C)C)NC(=O)[C@H](CCC(=O)O)NC(=O)[C@H](CO)NC(=O)[C@@H](NC(=O)[C@H](Cc1ccccc1)NC(=O)[C@H](N)CCCNC(=N)N)[C@@H](C)O)C(=O)N[C@H](C(=O)O)C(C)C` [Peptide 140] (H-[dR]FTSELSRLREGARLQALLQGLV-OH), with 1.49 ± 0.218 µM.

(Values after paper PMC8944975, “Secretin Receptor as a Target in Gastrointestinal Cancer: Expression Analysis and Ligand Development” (Biomedicines, 2022).)
